The record followed here is PMC10708468, “New Dipyrroloquinones from a Plant-Derived Endophytic Fungus Talaromyces sp” (Molecules, 2023).

Entries after “also recorded” stand apart in the source; their conditions may differ. Read-outs that look alike come from different tables or passages of the source.

In general, IC50 refers to the concentration that inhibits the measured activity by half. Broadly, the EC50 is the midpoint of the concentration-response curve.

Data set [1] deals with liver cancer cells Hep G2. The data set is described as follows: MTT cytotoxic activity assay, Hep G2. To be noted: Homo sapiens. The format is cell-based. Here is the method: (§1) The 3-(4,5-dimethyl-2-thiazolyl)-2,5-diphenyl-2-h-tetrazole ammonium bromide (MTT) experiment was applied to test the cytotoxic activity for 1–6 against human lung cancer cells A549 and liver cancer cells Hep G2. Cells in RPMI-1640 medium (10% FBS, 0.4% penicillin–streptomycin solution) were digested with trypsin and diluted to the concentration of 1 × 10^4 cells/mL. The cell suspensions were diluted and added into a 96-well microtiter plate with 200 µL per well. The plate was then incubated in a CO2 incubator at 37 °C. Compounds 1–6 were added to the plate wells after 24 h and incubated for 72 h. Adriamycin (ADM) was used as the positive control, and DMSO as the blank control. The MTT solution was added after 72 h incubation, followed by incubation for 4 h. The cells were successively disrupted with 200 µL of DMSO for 10 min after the supernatant liquid was removed. The absorption was measured at 570 nm.

Data set [2] deals with human lung cancer cells A549. The data set is described as follows: MTT cytotoxic activity assay, A549. The class given is cell-based. Here is the method: as §1
In a further data set the test system is RAW264.7 cells. The data set is described as follows: MTT cell viability of RAW264.7 cells (non-toxic concentrations). The class given is cell-based. The conditions noted are these: 24 h. The procedure:
(§2) RAW264.7 cells were cultured in DMEM with 10% fetal bovine serum (FBS) and 1% penicillin-streptomycin at 37 °C in 5% CO2. The MTT assay was used to evaluate cell viability. RAW264.7 cells were seeded on 96-well plates at 5 × 10^5 cells/well [26]. After incubation with compounds 1–6 at five concentrations ([…]) for 24 h, cells were treated with MTT (5 mg/mL) at 37 °C for 4 h. Then, the supernatant was removed and the […] was crystalised with DMSO. The absorbance was measured at 570 nm. The Griess reaction was applied to measure the accumulation of NO2^− in culture supernatant. RAW264.7 cells were treated with the compounds for 1 h then with the presence of LPS (1 μg/mL) for 24 h. The culture supernatant fluids (50 µL) and Griess reagent (50 µL) were mixed and incubated at room temperature. The absorbance was read at 570 nm after 15 min.

In data set [3] the test system is LPS-induced NO production in macrophage RAW264.7 cells. The data set is described as follows: Inhibition of LPS-induced NO production (Griess reaction). The class given is cell-based. The conditions noted are these: Mus musculus; for IC50: macrophage RAW264.7 cells, given as IC50, read-out: IC50 inhibition of LPS-stimulated NO production. Here is the method:
as §2
A general note: The Griess reaction detects nitrite, a stable product of nitric oxide.

For data set [4], the system named is PI3K-Akt-mTOR signalling pathway. Nature of the data set: Western blot analysis of PI3K-Akt-mTOR signalling pathway in A549 cells. The class given is cell-based, human. To be noted: 0.2 and 0.4 μM, 24 h. The procedure:
Considering the significant cytotoxicities of penicillixanthone A (4), we evaluated its plausible molecular mechanism in A549 tumour cells using western blot analysis in Figure 5. Compound 4 (0.2 and 0.4 µM) was firstly pretreated for 24 h to test the PI3K expression.
Figure 5 The protein expression of the PI3K-Akt-mTOR signalling pathway of 4 was evaluated by western blot analysis. A549 cells were treated with 4 (0.2 and 0.4 μM) for 24 h, and the expression levels of PI3K, Akt and mTOR were tested by the responsible antibodies. […] Data are represented as the mean ± SD, n = 3, *** p < 0.01 vs. Control.

Where [5] appears, read: HepG2 cells, MTT, 72 h incubation, read-out: IC50 cytotoxicity HepG2.
[6] abbreviates: A549 cells, MTT, 72 h incubation, read-out: IC50 cytotoxicity A549.
Setting [7] is: LPS (1 μg/mL)-induced NO production in RAW264.7 cells, 24 h, Griess reaction, read-out: EC50.

On to `COc1cccc2c1C(=O)c1c(O)c3c(c(O)c1C2=O)C[C@@](O)(C(=O)CO)C[C@@H]3O[C@H]1C[C@H](N)[C@H](O)[C@H](C)O1` [adriamycin, Adriamycin, reference compound], for which the IC50 in data set [1] (setting [5]) is 1.2 µM; in data set [2] (setting [6]), 3.5 µM.

`C/C1=C\Cc2c(cc(O)c3c2C[C@@H](C)OC3=O)OC(C)(C)[C@@H](O)CC/C(C)=C/CC1` [Compound 6, chrysomutanin]: the IC50 in data set [1] (setting [5]) is 43.9 µM; in data set [2] (setting [6]), 42.5 µM. In addition, in the data set with RAW264.7 cells, the “Non-Toxic Concentrations” value lay within 2.41 to 241.54 µM. In addition, the EC50 in data set [3] (setting [7]) came out at 142 µM.

For `CC(O)Cc1cc(O)c2c(c1)C(=O)c1cc(O)cc(O)c1C2=O` (centres unmarked) [Compound 5, isorhodoptilometrin], the IC50 in data set [1] (setting [5]) and in data set [2] (setting [6]) was more than 150 µM each time. Besides, the “Non-Toxic Concentrations” value in the data set on RAW264.7 cells is 3.18 to 318.47 µM. In data set [3] (setting [7]), the EC50 is 121 µM.

`CO[C@H](c1cc2c([nH]1)C(=O)c1cc([C@H](OC)C(C)C)[nH]c1C2=O)C(C)C` [Compound 3, terreusinone D]: the IC50 was found to be 57.4 µM in data set [1] (setting [5]), 62.7 µM in data set [2] (setting [6]) and 20.6 µM in data set [3]. Also, in the data set on RAW264.7 cells, the “Non-Toxic Concentrations” value fell in the range of 2.79 to 279.32 µM. The EC50 in data set [3] (setting [7]) was determined as 20.6 µM.

For `COC(=O)[C@]12Oc3ccc(-c4ccc(O)c5c4O[C@@]4(C(=O)OC)C(=C(O)C[C@@H](C)[C@@H]4O)C5=O)c(O)c3C(=O)C1=C(O)C[C@@H](C)[C@@H]2O` [Compound 4, penicillixanthone A], the IC50 in data set [1] (HepG2, Hep G2 cell line, read-out: IC50 cytotoxic activity Hep G2) was found to be 0.117 µM; in data set [1] (setting [5]), 0.212 µM; in data set [2] (A549 cell line, read-out: IC50 cytotoxic activity A549) it was 0.212 µM; in data set [2] (setting [6]), 0.117 µM. The EC50 in data set [3] (RAW264.7, 24 h) was 1 µM. Besides, the phospho-PI3K expression result in data set [4] is reported as “decrease the phospho-PI3K expression”. The phospho-mTOR/Akt expression entry in data set [4] is on record as “significantly suppressed”. In addition, the “expression of PI3K, Akt and mTOR (PI3K-Akt-mTOR signalling pathway)” value in data set [4] (p < 0.01 vs. Control) is “inhibiting the PI3K-Akt-mTOR signalling pathway; also recorded: inhibited the expression of PI3K, Akt and mTOR”.

`CC(C)C(=O)c1cc2c([nH]1)C(=O)c1cc([C@H](O)C(C)C)[nH]c1C2=O` [Compound 1, talaroterreusinone A]: the IC50 in data set [1] (setting [5]) amounted to 111 µM; in data set [2] (setting [6]), 133 µM; in data set [3], 20.3 µM. Moreover, the “Non-Toxic Concentrations” value with RAW264.7 cells was in the range of 3.04 to 304.87 µM. The EC50 in data set [3] (setting [7]) was 20.3 µM.

For `Oc1ccc(/C=C/c2cc(O)cc(O)c2)cc1` [resveratrol, reference compound], in the data set on RAW264.7 cells, the “Non-Toxic Concentrations” value lay within 0.43 to 109.52 µM. In addition, the EC50 in data set [3] (setting [7]) is 1.6 µM.

As to `CO[C@@H](c1cc2c([nH]1)C(=O)c1cc([C@H](O)C(C)C)[nH]c1C2=O)C(C)C` [Compound 2, Talaroterreusinone B], the IC50 was 84.7 µM in data set [1] (setting [5]), 98.8 µM in data set [2] (setting [6]) and 30.7 µM in data set [3]. The “Non-Toxic Concentrations” value with RAW264.7 cells fell in the range of 2.90 to 190.69 µM. Moreover, the EC50 in data set [3] (setting [7]) is 30.7 µM.
